# Reference: paper PMC9845330 (Communications Biology, 2023)
# Non-standard residues stand in square brackets, D forms with d. Residues, ends and D or L forms follow the SMILES beside them. *: point of attachment. X1 = O=C(CCCC[C@@H]1SC[C@@H]2NC(=O)N[C@@H]21)NCCCOCCOCCOCCCN*; PEG12 = NCCOCCOCCOCCOCCOCCOCCOCCOCCOCCOCCOCCOCCC(=O)O
# Tests used:
# Assay in all cases: Cell internalization by flow cytometry, absolute uptake (molecules per cell)
# Format in all cases: cell-based, human
# Details in all cases: for Molecules Internalized Per Cell: Average
# H1993 cells = test system: H1993 cells
# Excerpt: (§1) Optimizing MGS4 as a monomer is efficient but the optimal valency of the truncated peptide may be different than that of the full-length peptide. The peptide was synthesized as a monomer (MGS4_V8), dimer (MGS4_V9), and tetramer (MGS4_V10). To obtain quantitative data, we moved from measuring the relative fluorescence of dye-labeled peptide to the determination of the average number of dye molecules internalized per cell. […] The dimer MGS4_V9 has an EC50 7-fold lower indicating there is a synergistic effect in going from a monomer to a dimer (Fig. 2a and Table 2). However, there is only a 2-fold decrease in going from a dimer to a tetrameric peptide (MGS4_V10). We also calculated the EC50 on three other NSCLC cell lines (Table 2 and Supplementary Figure 3). […] The average number of peptides internalized per cell at saturating conditions varies, with H1993 cells internalizing the highest number of peptides at all three valencies (Table 2). This is likely due to differing levels of receptor expression on the cell type. The average molecules internalized at 50 nM in one hour follows the same trend (Fig. 2b).
# (§2) Biotinylated peptide was conjugated to streptavidin-R-phycoerythrin or streptavidin-Alexa Fluor 647 (1:1 molar ratio) for 30 min. The open binding sites on streptavidin were quenched with RPMI 1640 and diluted to the indicated concentration. Tumor cells were grown to 90% confluency in a 12 well plate, then incubated with 500 µl peptide-dye conjugate at 37 °C. After 1 h, peptide was removed, and the cells were washed 3x with PBS (137 mM NaCl, 2.7 mM KCl, 10 mM Na2HPO4, 1.8 mM KH2PO4, pH 7.4), 2x with 0.1 M HCl-glycine pH2.2 in 0.9% NaCl, and 1x PBS rinse. Cells were removed by trypsinization. Flow cytometry was performed on a BD FACSCelesta, and data were analyzed on Flowing software. Cells were gated based on the forward and side scatter to include only viable cells and a minimum of 10,000 events were counted. A region containing <5% of the cells in the negative control was established, and relative peptide uptake by the mean fluorescence intensity of that population. For absolute peptide uptake per cell, a standard curve was generated using Quantum™ Alexa Fluor 647 microspheres (Bangs Laboratory, Fishers, IN). A representative linear regression showing the correlation of molecule equivalents soluble fluorophores (MESF) vs the mean fluorescence intensity (MFI) is shown in Supplemental Figure 6. Cells were gated based on the forward and side scatter to include only viable cells and a minimum of 10,000 events were counted. MFI was determined at 50% at peak height. Molecules internalized per cell were determined by the standard curve relating MESF to MFI and divided by the number dye molecules/MGS conjugate. An example is shown in supplemental Figure 7. GraphPad Prism® was used for non-linear regression curve fitting to calculate an EC50. Parameters and statistical analysis are provided (Supplementary Tables 2–6). Experiments were repeated a minimum of three times.
# (§3) For all EC50 determinations, each peptide variant was tested on the indicated cell line with a minimum of 3 biological replicates and analyzed individually by flow cytometry. The standard error measurement for each concentration is indicated by error bars in the figures. For experiments in which absolute number of molecules internalized was measured at different concentrations, EC50 were determined by GraphPad Prism® using nonlinear regression curve fitting for log(agonist) vs. response–Variable slope (four parameters). For the truncation experiments, EC50 were determined using one-site-specific binding. Similarly, IC50s were calculated using GraphPad Prism® using log(agonist) vs. response–Variable slope (four parameters). A minimum of four biological replicates were performed for each variant and cell line. Data for individual experiments are included in supplementary files. Parameters and statistical analysis are provided in Supplementary Tables 2–7. […]
# H358 cells = test system: H358 cells
# Excerpt: as §1, §2, §3
# H2009 cells = test system: H2009 cells
# Excerpt: as §1, §2, §3
smiles,measurement,setting,value
CC(=O)N[C@@H](Cc1ccccc1)C(=O)N[C@@H](Cc1c[nH]cn1)C(=O)N[C@@H](C)C(=O)N[C@H](C(=O)N1CCC[C@H]1C(=O)N[C@@H](CCC(N)=O)C(=O)N[C@@H](CO)C(=O)N[C@@H](Cc1ccccc1)C(=O)N[C@@H](Cc1ccc(O)cc1)C(=O)N[C@H](C(=O)NCCOCCOCCOCCOCCOCCOCCOCCOCCOCCOCCOCCOCCC(=O)N[C@@H](CCC(=O)NCCCOCCOCCOCCCNC(=O)CCCC[C@@H]1SC[C@@H]2NC(=O)N[C@@H]21)C(N)=O)[C@@H](C)O)C(C)C [MGS4_V8] (Ac-FHAVPQSFYT[PEG12]E(X1)-NH2),Molecules Internalized Per Cell,H1993 cells; 0.01 nM,0
same,Molecules Internalized Per Cell,H1993 cells; 1 nM,57
same,Molecules Internalized Per Cell,H1993 cells; 10 nM,3584
same,Molecules Internalized Per Cell,H1993 cells; 20 nM,36850
same,Molecules Internalized Per Cell,H1993 cells; 30 nM,42262
same,Molecules Internalized Per Cell,H1993 cells; 40 nM,55296
same,Molecules Internalized Per Cell,H1993 cells; 50 nM,88510
same,Molecules Internalized Per Cell,H1993 cells; 60 nM,76327
same,Saturation (molecules),H1993 cells; H1993 Cells,"119,000 ± 57,500 molecules"
same,HillSlope,H1993 cells; Supplementary Table 6,1.706
same,LogIC50,H1993 cells; Supplementary Table 6,-7.427
same,Top,H1993 cells; Supplementary Table 6,118643
same,Molecules Internalized Per Cell,H358 cells; 0.01 nM,0
same,Molecules Internalized Per Cell,H358 cells; 0.1 nM,11
same,Molecules Internalized Per Cell,H358 cells; 1 nM,140
same,Molecules Internalized Per Cell,H358 cells; 5 nM,2481
same,Molecules Internalized Per Cell,H358 cells; 10 nM,4840
same,Molecules Internalized Per Cell,H358 cells; 20 nM,25103
same,Molecules Internalized Per Cell,H358 cells; 30 nM,36064
same,Molecules Internalized Per Cell,H358 cells; 40 nM,47392
same,Molecules Internalized Per Cell,H358 cells; 50 nM,58761
same,Molecules Internalized Per Cell,H358 cells; 60 nM,66918
same,Molecules Internalized Per Cell,H358 cells; 80 nM,68326
same,Saturation (molecules),H358 cells; H358 Cells,"85,500 ± 39600 molecules"
same,HillSlope,H358 cells; Supplementary Table 5,1.829
same,LogIC50,H358 cells; Supplementary Table 5,-7.470
same,Top,H358 cells; Supplementary Table 5,85477
same,Molecules Internalized Per Cell,H2009 cells; 1 nM,0
same,Molecules Internalized Per Cell,H2009 cells; 10 nM,1006
same,Molecules Internalized Per Cell,H2009 cells; 20 nM,3516
same,Molecules Internalized Per Cell,H2009 cells; 30 nM,15550
same,Molecules Internalized Per Cell,H2009 cells; 40 nM,22008
same,Molecules Internalized Per Cell,H2009 cells; 50 nM,28764
same,Molecules Internalized Per Cell,H2009 cells; 60 nM,30384
same,Molecules Internalized Per Cell,H2009 cells; 80 nM,38906
same,Saturation (molecules),H2009 cells; H2009 Cells,"40,600 ± 2630 molecules"
same,HillSlope,H2009 cells; Supplementary Table 4,3.175
same,LogIC50,H2009 cells; Supplementary Table 4,-7.424
same,Top,H2009 cells; Supplementary Table 4,40633
